Values quoted from earlier work in patent publication US11759428B2, “Pharmaceutical formulation comprising esomeprazole and sodium bicarbonate” (CHONG KUN DANG PHARMACEUTICAL CORP., priority 2018, dated 2023).

Conditions: aqueous solution having 3 or lower of pH

## COc1ccc2nc([S@@+]([O-])Cc3ncc(C)c(OC)c3C)[nH]c2c1 [esomeprazole, (S)-5-methoxy-2-[(4-methoxy-3,5-dimethyl-2-pyridinyl)-methyl]sulfinyl-1H-benzimid azol]
  degradation half-life: less than 10 minutes
